Laboratory results reported in patent US4435410A, “3-[2-(3-Alkyl and alkenyl-4-piperidyl)-ethyl]-indoles for inhibiting serotonin uptake and for releasing serotonin” (Pharmindustrie, priority 1981, dated 1984).

Columns and labels:
[1] = tested on: human blood platelets (release of serotonin); experiment: Release of serotonin from human blood platelets; assay type: cell-based; details: Platelet, product concentration 5 × 10^-5 moles per liter, compared with controls, read-out: Percent of increased serotonin release
Method: The ability of products to inhibit the uptake of serotonin or to cause its release has been shown on human blood platelets according to J. L. David and Coll. "Platelets Function and Thrombosis, a Review of Methods", p.
The action of the products on the release of serotonin is tested at a concentration of 5×10^-5 moles per liter.

[2] = tested on: human blood platelets (uptake of serotonin); experiment: Inhibition of the uptake of serotonin by human blood platelets; assay type: cell-based; details: Platelet, read-out: Inhibition of serotonin uptake I50
Source text: It is known that the uptake of serotonin by the blood platelets constitutes a good model for the uptake of this amine by the neurons (cf. J. Tuomisto, J. Pharm. Pharmac., 26. 92 (1974). When it is applied to the study of medicaments, a method which makes use of the blood platelets is very attractive from the point of view of allowing human cells to be used, thereby giving it good prospects.
The ability of products to inhibit the uptake of serotonin or to cause its release has been shown on human blood platelets according to J. L. David and Coll. "Platelets Function and Thrombosis, a Review of Methods", p. 335 (Plenum Press, London, 1972).
(1) Inhibition of the uptake of serotonin
The results are expressed by a 50% inhibiting dose or I50 which represents the dose of the product in micromoles per liter, reducing the uptake of serotonin by 50%.

[3] = Acute toxicity in male mice by oral administration; details: mouse, in vivo; male mice CD1, oral, after 3 days' observation, cumulative method
Method: The acute toxicity of the products was determined in male mice CD1 (Charles RIVER) by oral administrations. The LD50 which was calculated after 3 days' observation, by the cumulative method of J. J. Reed and Coll. (Am. J. Hyg. 27, 493-1938) is 225 mg/kg for the compound of Example 1, and about 200 mg/kg for the compound of Example 4.

SMILES	activation at 50 µM [1] [%]	IC50 [2] [nM]	LD50 at 72 h [3] [mg/kg]
CC[C@H]1CNCC[C@H]1CCc1c[nH]c2ccccc12 [Example 2, 3-{2-[3(R)ETHYL-4(R)PIPERIDYL]-ETHYL}-INDOLE]	75	60	
C=C[C@@H]1CNCC[C@H]1CCc1c[nH]c2ccccc12 [Example 4, 3-{2-[3(S)VINYL-4(R)PIPERIDYL]-ETHYL}-INDOLE]	91	35	~200
C=C[C@H]1CNCC[C@H]1CCc1c[nH]c2ccccc12 [Example 1, 3-[2-(3(R)VINYL-4(R)PIPERIDYL)-ETHYL]-INDOLE]	84	8	225
